Experimental data from US10085973B2, “Pharmaceutical composition containing a compound having a thrombopoietin receptor agonistic activity” (Shionogi & Co., Ltd., priority 2012, dated 2018).

System: patients with thrombocytopenia caused by chronic liver disease
Assay: Example 2 Test Example 1: repeated oral administration before percutaneous liver ablation with discontinuation criteria
Type: in vivo, human
Excerpt: To patients with thrombocytopenia caused by chronic liver disease, lusutrombopag as a pretreatment of percutaneous liver ablation was orally administered repeatedly for 7 days while applying the discontinuation criteria designed in Example 1 and profile of the platelet count was studied. In the present Example, the term “ablation” refers to radiofrequency ablation.
Patients with thrombocytopenia caused by chronic liver disease who are scheduled to undergo percutaneous liver ablation.
Patients who meet the following inclusion criteria are included. • 1) Age: 20 years of age or older (at the time of signing informed consent); • 2) Patients who themselves can give a consent in writing; • 3) Patients who have a complication or a history of chronic liver disease caused by hepatitis B or C virus; • 4) Patients who are scheduled to undergo percutaneous liver ablation for primary liver cancer; • 5) Patients having a platelet count which is less than 5×10^4/μL at the time of screening; • 6) Patients whose ECOG* Performance Status of Grade is 0 to 1; and • 7) Patients who can practice contraception from entry to the end of observation. (Exclusion Criteria)
Patients who meet the following criteria are excluded. • 1) Patients who underwent splenectomy; • 2) Patients who have a complication presenting thrombocytopenia; • 3) Patients who underwent liver transplant; • 4) Degree of hepatic disorder classified as the Child-Pugh class of C; • 5) Hepatic encephalopathy uncontrolled by medicaments; • 6) Ascites uncontrolled by medicaments; • 7) Patients who have a complication of malignant tumor other than primary liver cancer; • 8) Patients who have a complication or a history of thrombosis or thrombotic disease; • 9) Patients who have absence of hepatopetal blood flow in the portal vein; • 10) Patients who have a complication or a history of disease with hemorrhage risk; • 11) Patients who received a therapeutic agent that affects a platelet count or underwent a therapy that affects a platelet count within 90 days before registry; • 12) Patients who received a blood product (excluding erythrocyte product) within 14 days before registry; or • 13) Patients who previously received a TPO receptor agonist. (Drugs which are Prohibited, Limited or Allowed for Coadministration During the Trial)
In each allocated group, lusutrombopag is orally administered repeatedly once daily for 7 days. After patients are monitored on day 8, they undergo percutaneous liver ablation before day 13 from initiation of administration. They are monitored until about day 30 after initiation of administration.
Lusutrombopag is orally administered repeatedly once daily for 7 days. On day 1, the drug is administered at the time of visit. On day 3 to day 7 (day 5 to day 7 for the group of 2.0 mg administration), the drug shall be administered after checking the platelet count measured on the same day. Administration of lusutrombopag shall be discontinued when the platelet count reaches to the following criteria (administration discontinuating criteria) in a clinical examination after administration of the investigational drug.
Administration discontinuating criteria: when the platelet count has increased by 2×10^4/μL or more from the platelet count before initiation of administration and the platelet count has reached to 5×10^4/μL or higher.
As the platelet count before initiation of administration, the platelet count determined within 7 days before initiation of administration was used.
Daily dose was any one of 2.0, 2.5, 3.0 and 4.0 mg of lusutrombopag.
Proportion of patients who have a platelet count on day 8 after initiation of administration that increased by 2×10^4/μL or more from the platelet count before initiation of administration and reached to 5×10^4/μL or higher. […]

What does the source list for `CCCCCCO[C@@H](C)c1cccc(-c2csc(NC(=O)c3cc(Cl)c(/C=C(\C)C(=O)O)c(Cl)c3)n2)c1OC` [lusutrombopag, (E)-3-[2,6-dichloro-4-[4-[3-[(S)-1-hexyloxyethyl]-2-methoxyphenyl]-thiazol-2-ylcarbamoyl]-phenyl]-2-methylacrylic acid]?
Endpoint 2: Number of patients who had a platelet count during the trial that increased by 2 × 10^4/μL or more from the count before initiation of administration and reached to 5 × 10^4/μL or higher (2.0 mg once daily, n = 12): 9; Number of patients to whom administration was discontinued according to the administration discontinuating criteria (2.0 mg once daily, n = 12): 3; Number of patients who received platelet transfusion (2.0 mg once daily, n = 12): 2; Endpoint 2: Number of patients who had a platelet count during the trial that increased by 2 × 10^4/μL or more from the count before initiation of administration and reached to 5 × 10^4/μL or higher (2.5 mg once daily, n = 6): 4; Number of patients to whom administration was discontinued according to the administration discontinuating criteria (2.5 mg once daily, n = 6): 3; Number of patients who received platelet transfusion (2.5 mg once daily, n = 6): 1; Endpoint 2: Number of patients who had a platelet count during the trial that increased by 2 × 10^4/μL or more from the count before initiation of administration and reached to 5 × 10^4/μL or higher (3.0 mg once daily, n = 7): 6; Number of patients to whom administration was discontinued according to the administration discontinuating criteria (3.0 mg once daily, n = 7): 0; Number of patients who received platelet transfusion (3.0 mg once daily, n = 7): 1; Endpoint 2: Number of patients who had a platelet count during the trial that increased by 2 × 10^4/μL or more from the count before initiation of administration and reached to 5 × 10^4/μL or higher (4.0 mg once daily, n = 8): 7; Number of patients to whom administration was discontinued according to the administration discontinuating criteria (4.0 mg once daily, n = 8): 2; Number of patients who received platelet transfusion (4.0 mg once daily, n = 8): 1; efficacy at each dose (all doses (2.0, 2.5, 3.0 and 4.0 mg)): all doses showed the efficacy; patients who had a platelet count of higher than 20×10^4/μL during the observation period (daily dose 2.0, 2.5, 3.0 and 4.0 mg): None; maximum platelet count of patients to whom administration was discontinued according to the criteria (groups of daily dose 2 mg, 2.5 mg and 4.0 mg, vs patients who received the drug for 7 days): lower than that of patients who received the drug for 7 days
